Patent US8829024B2, “Combination steroid and glucocorticoid receptor antagonist therapy” (Corcept Therapeutics, Inc., priority 2011, dated 2014)

Experiments:
[1] = tested on: GR induced transactivation (tyrosine amino transferase expression); assay: Glucocorticosteroid transactivation assay (tyrosine amino transferase expression in primary hepatocytes); format: cell-based; settings: human liver hepatocytes; for inhibition of dexamethasone induced expression of tyrosine amino transferase (antagonism of GR induced transactivation): in presence of 50 nM dexamethasone, FIG. 2b
From the text: GR modulators of the present invention that inhibit GR induced transactivation can be identified by measuring the amount of tyrosine amino transferase expressed in the presence of the GR induced transactivation in a cell model (human liver hepatocytes).
In this example, dexamethasone induces the expression of tyrosine amino transferase by transactivation. Typically, glucocorticosteroids, such as the synthetic dexamethasone, bind the ligand-binding domain of the glucocorticoid receptor (GR) to promote nuclear translocation. In the nucleus, the DNA binding domain directs dimerization on imperfect DNA palindromes known as simple glucocorticoid response elements (GREs) to transcriptionally activate genes including tyrosine amino transferase (TAT).
Primary hepatocytes were distributed in 96-well collagen coated plates and equilibrated in media (without hydrocortisone) for 6 hours. Compounds were tested at 6 concentrations (semi-log dilutions) and prepared in 0.2% DMSO in the presence of 50 nM dexamethasone or media. Hepatocytes in the presence of compound were incubated for 24 hours, washed in PBS and lysed for 30 minutes (30 μl lysis volume). The TAT enzyme assay was initiated by the addition of 170 μl TAT assay buffer (substrate) for 1 hour. The reaction was terminated by the addition of 30 μl 10N KOH and the 96-well plates incubated for a further 30 min […] to allow formation of the aromatic aldehyde product, p-hydroxybenzaldehyde. Absorbance was read at 340 nm on a spectrophotometer.
Reagents: TAT assay buffer: 0.2 M KH2PO4 pH7.4 containing 5.4 mM L-tyrosine, 10.8 mM α-ketoglutaric acid and 0.06 mM Pyridoxal-5-phosphate monohydrate.
Dexamethasone was used to increase the expression of tyrosine amino transferase in human liver hepatocytes.

[2] = tested on: GR induced transrepression (LPS activated TNFα release); assay: Glucocorticosteroid transrepression assay (LPS activated TNFα release in peripheral blood mononuclear cells); format: cell-based; settings: human PBMC, 10 ng/ml LPS; for blockade of dexamethasone induced repression of LPS activated TNFα release (antagonism of transrepression): in presence of 50 nM dexamethasone, FIG. 1b
Experimental: Using a cell-based model (human peripheral blood mononuclear cells), dexamethasone was administered to the cells and the release of TNFα was measured. After addition of the GR modulator of the present invention, the release of TNFα was again measured and compared to the amount released in the absence of the GR modulator.
Human peripheral blood mononuclear cells were isolated and distributed in 96-well plates at a density of 2×10^5 cells/well in medium. Compounds were tested at 7 concentrations (semi-log dilutions) and prepared at 5× final assay concentration in 1.5% DMSO. Following a preincubation of 30 minutes with compounds the plates are then incubated in presence of 50 nM dexamethasone or media for 30 minutes. TNFα release was activated by overnight incubation with 10 ng/ml LPS. Human TNFα was measured using chemiluminescence detected on the SECTOR® Imager 6000 (Mesoscale). Dexamethasone was used to inhibit LPS activated TNFα release via the glucocorticoid receptor. […] In some cases, CORT-108297 was added in the absence of dexamethasone to determine if CORT-108297 inhibited LPS activated TNFα release.

| SMILES | inhibition of dexamethasone induced expression of tyrosine amino transferase (antagonism of GR induced transactivation) [1] | blockade of dexamethasone induced repression of LPS activated TNFα release (antagonism of transrepression) [2] | concentration giving maximal increase in TAT expression (transactivation) ([1]; compound alone, FIG. 2a) | expression of tyrosine amino transferase (increase), compound alone ([1]; all concentrations assayed, no dexamethasone, FIG. 2a) [%] | inhibition of LPS activated TNFα release, compound alone (transrepression agonism), in words ([2]; FIG. 1a) | maximal inhibition of LPS activated TNFα release, compound alone ([2]; at micromolar concentrations, no dexamethasone, FIG. 1a) [%] |
| --- | --- | --- | --- | --- | --- | --- |
| CC#C[C@]1(O)CC[C@H]2[C@@H]3CCC4=CC(=O)CCC4=C3[C@@H](c3ccc(N(C)C)cc3)C[C@@]21C [mifepristone, reference compound] | inhibit the increased expression of tyrosine amino transferase | completely blocks this effect | – | – | – | – |
| C[C@@H]1C[C@H]2[C@@H]3CCC4=CC(=O)C=C[C@]4(C)[C@@]3(F)[C@@H](O)C[C@]2(C)[C@@]1(O)C(=O)CO [dexamethasone, reference compound] | – | – | about 100 nM | – | – | – |
| CCOC[C@]12Cc3cnn(-c4ccc(F)cc4)c3C=C1CCN(S(=O)(=O)c1ccc(C(F)(F)F)cc1)C2 [CORT-108297] | full potent antagonist of GR induced transactivation | only shows partial blockade at higher concentrations | – | ≤ 0 | weak partial agonist of GR induced transrepression | 48 |
